From ChEMBL document CHEMBL1141398, “Metastin (KiSS-1) mimetics identified from peptide structure-activity relationship-derived pharmacophores and directed small molecule database screening” (J Med Chem, 2007)
Calls of active or inactive are those of the source. The rule behind the calls is not given here.

Target: KiSS-1 receptor (Homo sapiens, UniProt Q969F8)
Experiment: Activity at metastin receptor expressed in HEK293 cells by measuring calcium release at 100 uM
Format: functional, cell-based

Sequence of KiSS-1 receptor (Q969F8 whole entry): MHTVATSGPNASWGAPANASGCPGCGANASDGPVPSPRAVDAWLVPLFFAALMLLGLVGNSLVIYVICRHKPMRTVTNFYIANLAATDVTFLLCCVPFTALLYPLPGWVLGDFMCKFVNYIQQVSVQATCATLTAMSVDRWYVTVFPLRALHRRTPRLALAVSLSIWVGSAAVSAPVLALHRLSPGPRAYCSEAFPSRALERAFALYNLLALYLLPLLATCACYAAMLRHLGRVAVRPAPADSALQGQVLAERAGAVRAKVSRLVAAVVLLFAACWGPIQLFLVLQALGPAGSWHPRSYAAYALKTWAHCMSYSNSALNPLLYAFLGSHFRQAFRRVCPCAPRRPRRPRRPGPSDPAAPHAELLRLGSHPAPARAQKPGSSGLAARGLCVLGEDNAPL

CC(C)(C)CC(C)(C)c1ccc(OCCOCC[N+](C)(C)Cc2ccccc2)cc1 [BENZETHONIUM CHLORIDE]
Activity: Active
